Like-named read-outs stand apart in the source and are kept apart here.
System: Stat3-ER expressing A375 cells
Format: cell-based
Experimental: In order to understand Stat3's ability to affect cell proliferation and cell death, we have examined the profile of genes expressed upon Stat3 activation in A375 cells using oligonucleotide microarrays.
Briefly, microarray analysis was performed using HG U95A GeneChips™ (Affymetrix, Santa Clara, USA) essentially according to the manufacturer's instructions. […] RNA from three independent experiments was pooled and biotin-labeled cRNA probes were generated from each sample starting from 10 μg of total cellular RNA. The resulting biotinylated cRNAs were hybridized to the Affymetrix U95A oligonucleotide array containing more than 12,000 sequences and signals detected. Chip analysis was performed using the Affymetrix Microarray Suite v5 (target intensity 500 used for chip scaling) and GeneSpring 4.2.1 (Silicon Genetics). Changes in gene expression were assessed by looking for concordant changes between replicates using a signed Wilcoxon rank test (as recommended by Affymetrix).

Substance: oncostatin M [OSM]
- expression change (fold): Major vault protein (Clone1): 2.9
- expression change (fold): Nicotinamide N-methyltransferase (Clone1): 2.8
- expression change (fold): Niemann-Pick disease, type C1 (Clone1): 1.7
- expression change (fold): Oncostatin M receptor (Clone1): 1.9
- expression change (fold): Osteoprotegrin (Clone1): 5.2
- expression change (fold): Prostatic acid phosphatase precursor (Clone1): 4.5
- expression change (fold): Ras-induced senescence 1 (Clone1): 1.8
- expression change (fold): Regenerating islet-derived 1 alpha (pancreatic stone protein, pancreatic thread protein) (Clone1): 3.0
- expression change (fold): Regulator of G protein signalling 16 (Clone1): 3.7
- expression change (fold): STAT induced STAT inhibitor 3 (Clone1): 11.6
- expression change (fold): Secreted phosphoprotein 1 (osteopontin, bone sialoprotein 1, early T-lymphocyte activation 1) (Clone1): 3.8
- expression change (fold): Serine (or cysteine) protease inhibitor, clade B (ovalbumin), member 3 (Clone1): 28.8
- expression change (fold): Small inducible cytokine A2 (monocyte chemotactic protein 1) (Clone1): 0.9
- expression change (fold): Solute carrier family 2 (facilitated glucose transporter), member 3 (Clone1): 1.9
- expression change (fold): Stanniocalcin 1 (Clone1): 2.8
- expression change (fold): Tyrosine phosphatase/TIGR = HG620-HT620 (Clone1): 0.9
- expression change (fold): v-fos FBJ murine osteosarcoma viral gene homologue (Clone1): 2.9
- expression change (fold): v-jun avian sarcoma virus 17 oncogene homologue (Clone1): 1.4
- expression change (fold): v-maf musculoaponeurotic fibrosarcoma oncogene homologue (avian) (Clone1): 2.5
- expression change (fold): Aquaporin 3 (Clone1, 2nd listing): 9.2
- expression change (fold): Fibronectin 1, isoform 1 preproprotein (Clone1, 2nd listing): 0.6
- expression change (fold): Insulin-like growth factor binding protein 3 (Clone1, 2nd listing): 2.4
- expression change (fold): Interleukin 8 (Clone1, 2nd listing): 1.2
- expression change (fold): Kynureninase (L-kynurenine hydrolase) (Clone1, 2nd listing): 1.8
- expression change (fold): Oncostatin M receptor (Clone1, 2nd listing): 1.9
- expression change (fold): Prostatic acid phosphatase precursor (Clone1, 2nd listing): 1.0
- expression change (fold): Secreted phosphoprotein 1 (osteopontin, bone sialoprotein 1, early T-lymphocyte activation 1) (Clone1, 2nd listing): 3.5
- expression change (fold): v-jun avian sarcoma virus 17 oncogene homologue (Clone1, 2nd listing): 1.8
- expression change (fold): Kynureninase (L-kynurenine hydrolase) (Clone1, 3rd listing): 1.9
- expression change (fold): Absent in melanoma 2 (Clone2): 3.1
- expression change (fold): Alpha-1-antichymotrypsin precursor (Clone2): 2.4
- expression change (fold): Aquaporin 3 (Clone2): 3.8
- expression change (fold): Brain-derived neurotrophic factor (Clone2): 4.7
- expression change (fold): CCAAT/enhancer binding protein (C/EBP), delta (Clone2): 1.6
- expression change (fold): Cathepsin L (Clone2): 3.4
- expression change (fold): Cytokine receptor-like factor 1 (Clone2): 0.9
- expression change (fold): Death-associated protein kinase 1 (Clone2): 6.9
- expression change (fold): Ephrin A1 precursor (Clone2): 2.9
- expression change (fold): Ets variant gene 6 (Clone2): 4.0
- expression change (fold): Fibronectin (Clone2): 3.1
- expression change (fold): Fibronectin 1, isoform 1 preproprotein (Clone2): 1.9
- expression change (fold): Glycine dehydrogenase (decarboxylating, glycine decdarboxylase, glycine cleavage system protein P) (Clone2): 2.5
- expression change (fold): I factor (complement) (Clone2): 2.2
- expression change (fold): Insulin-like growth factor binding protein 3 (Clone2): 2.1
- expression change (fold): Intercellular adhesion molecule 1 precursor (Clone2): 2.1
- expression change (fold): Interferon induced transmembrane protein 1 (9-27) (Clone2): 0.6
- expression change (fold): Interleukin 8 (Clone2): 0.6
- expression change (fold): Jun B proto-oncogene (Clone2): 2.2
- expression change (fold): KIAA0161 gene product (Clone2): 1.7
- expression change (fold): KIAA0303 protein (Clone2): 2.4
- expression change (fold): KIAA0500 protein (Clone2): 3.8
- expression change (fold): Killer cell lectin-like receptor subfamily C, member 2 (Clone2): 1.0
- expression change (fold): Killer cell lectin-like receptor subfamily C, member 3 isoform NKG2-E (Clone2): 0.4
- expression change (fold): Kynureninase (L-kynurenine hydrolase) (Clone2): 1.7
- expression change (fold): MHC class II transactivator (Clone2): 2.6
- expression change (fold): MHC, class II, DQ alpha 1 precursor (Clone2): 2.3
- expression change (fold): MHC, class II, DQ beta 1 (Clone2): 2.6
- expression change (fold): Major vault protein (Clone2): 2.5
- expression change (fold): Nicotinamide N-methyltransferase (Clone2): 1.9
- expression change (fold): Niemann-Pick disease, type C1 (Clone2): 2.4
- expression change (fold): Oncostatin M receptor (Clone2): 2.1
- expression change (fold): Osteoprotegrin (Clone2): 0.7
- expression change (fold): Prostatic acid phosphatase precursor (Clone2): 10.2
- expression change (fold): Ras-induced senescence 1 (Clone2): 1.9
- expression change (fold): Regenerating islet-derived 1 alpha (pancreatic stone protein, pancreatic thread protein) (Clone2): 3.0
- expression change (fold): Regulator of G protein signalling 16 (Clone2): 2.1
- expression change (fold): STAT induced STAT inhibitor 3 (Clone2): 9.7
- expression change (fold): Secreted phosphoprotein 1 (osteopontin, bone sialoprotein 1, early T-lymphocyte activation 1) (Clone2): 11.3
- expression change (fold): Serine (or cysteine) protease inhibitor, clade B (ovalbumin), member 3 (Clone2): 26.7
- expression change (fold): Small inducible cytokine A2 (monocyte chemotactic protein 1) (Clone2): 1.5
- expression change (fold): Solute carrier family 2 (facilitated glucose transporter), member 3 (Clone2): 2.6
- expression change (fold): Stanniocalcin 1 (Clone2): 4.6
- expression change (fold): Tyrosine phosphatase/TIGR = HG620-HT620 (Clone2): 1.6
- expression change (fold): v-fos FBJ murine osteosarcoma viral gene homologue (Clone2): 4.6
- expression change (fold): v-jun avian sarcoma virus 17 oncogene homologue (Clone2): 1.0
- expression change (fold): v-maf musculoaponeurotic fibrosarcoma oncogene homologue (avian) (Clone2): 3.5
- expression change (fold): Aquaporin 3 (Clone2, 2nd listing): 6.7
- expression change (fold): Fibronectin 1, isoform 1 preproprotein (Clone2, 2nd listing): 2.3
- expression change (fold): Insulin-like growth factor binding protein 3 (Clone2, 2nd listing): 1.7
- expression change (fold): Interleukin 8 (Clone2, 2nd listing): 0.7
- expression change (fold): Kynureninase (L-kynurenine hydrolase) (Clone2, 2nd listing): 1.3
- expression change (fold): Oncostatin M receptor (Clone2, 2nd listing): 2.0
- expression change (fold): Prostatic acid phosphatase precursor (Clone2, 2nd listing): 1.7
- expression change (fold): Secreted phosphoprotein 1 (osteopontin, bone sialoprotein 1, early T-lymphocyte activation 1) (Clone2, 2nd listing): 5.7
- expression change (fold): v-jun avian sarcoma virus 17 oncogene homologue (Clone2, 2nd listing): 1.1
- expression change (fold): Kynureninase (L-kynurenine hydrolase) (Clone2, 3rd listing): 1.4
